This note sets out measurements from PubChem BioAssay (NCI).

What all share (assay): NCI anticancer screen, dose series, 48 h
The test system of test [1] is PC-3 prostate.
Test [2] relates to HCT-116 colon.
Test [3] deals with ACHN renal.
Test [4] relates to RPMI-8226 leukemia.
For test [5], the system named is U251 CNS.
The test system of test [6] is SK-MEL-5 melanoma.
In test [7] the test system is 786-0 renal.
Test [8] concerns SK-MEL-28 melanoma.
Test [9] relates to SF-539 CNS.
The subject of test [10] is A498 renal.

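Cultured in 96-well plates, cells were exposed to test compound for 48 hours across five concentrations. GI50 marks 50% less growth. The concentration for full growth arrest is given as TGI.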

As to `C=C1C(=O)O[C@H]2[C@H]1CC/C(CNC(=O)/C=C/c1ccc(Cl)cc1Cl)=C\CC[C@@]1(C)O[C@@H]21`, the GI50 in [1] is 1.42 µM; in test [2] it was 0.647 µM; in test [3] it was 1.13 µM; in [4], 0.329 µM; in [5], 1.65 µM; in [6], 1.63 µM. Further, the GI50 was 1.2 µM in [7], 1.32 µM in [8], 1.53 µM in test [9] and 1.47 µM in [10]. Moreover, the TGI was determined as 4.4 µM in test [1]; 2 µM in test [2]; 2.48 µM in [3]; 1.54 µM in test [4]; 3.14 µM in test [5]; 3.02 µM in test [6]. Moreover, the TGI in test [7] amounted to 2.56 µM; in test [8], 2.93 µM; in test [9] it was 3.17 µM; in [10] it was 3.87 µM.
As for `Cc1cc(Cl)ccc1Nc1nc(C(F)(F)F)ccc1C(=O)Nc1cccc(C(F)(F)F)c1`, the GI50 was 3.63 µM in [1]; 2.75 µM in test [3]; 2.73 µM in [4]; 3 µM in test [5]; 2.79 µM in test [6]; 3.61 µM in test [7]. In addition, the figures for the GI50 in test [8], in [9] and in test [10] were 4.79 µM, 3.27 µM and 2.79 µM, respectively. Further, the TGI turned out to be 15.5 µM in test [1]; 9.01 µM in test [3]; 12 µM in test [4]; 9.72 µM in [5]; 9.34 µM in test [6]; 12.9 µM in test [7]. Also, the TGI in test [8] came out at 16.6 µM; in test [9], 14.7 µM; in test [10] it was 7.43 µM.
As to `Cc1ccccc1NC(=O)c1cc2ccccc2cc1O`, the GI50 in [1] is 2.7 µM; in test [2], 3.45 µM; in [3] it was 3.17 µM; in test [4], 2.83 µM; in test [5], 3.56 µM; in [6], 2.38 µM. Besides, the GI50 in [7] was 3.41 µM; in test [8], 5.09 µM; in test [9], 3.55 µM. Moreover, the TGI in test [1] is 8.81 µM; in [2] it was 15.1 µM; in test [3], 10.4 µM; in [4], 8.9 µM; in test [5], > 100 µM; in [6] it was 5.58 µM. Also, the TGI in [7] is > 100 µM; in test [8], > 100 µM; in test [9], 24.1 µM.
In the case of `O=CN1N=C(c2ccc(Nc3ccnc4cc(Cl)ccc34)cc2)CC1c1ccc(Cl)cc1` (stereo not drawn), the GI50 was 0.475 µM in test [1]; 0.499 µM in test [2]; 1 µM in [3]; 0.511 µM in test [5]; 0.809 µM in [6]; 0.908 µM in [7]. Moreover, the GI50 in test [8] was 0.758 µM; in test [9], 0.575 µM; in test [10], > 100 µM. The TGI in [1], in [2], in [3], in test [5], in test [6] and in [7] was > 100 µM throughout. Further, the TGI in [8], in [9] and in test [10] was > 100 µM throughout.
Consider `COc1ccc(OC)c(/C=N/N=C2\C(=O)Nc3c(Cl)cc(Cl)cc32)c1`, for which the TGI in test [1], in [2], in test [3], in test [5], in [6] and in test [7] was > 100 µM each time. For the same compound, the TGI in test [8], in [9] and in [10] was > 100 µM in each case.
With `NNC(=S)N/N=C(/C(=O)Nc1ccc([N+](=O)[O-])cc1)c1nc2ccc([N+](=O)[O-])cc2[nH]c1=O`, the TGI in test [2], in [3], in test [4], in test [5], in test [6] and in [7] was > 100 µM throughout. Also, the TGI in [8], in test [9] and in test [10] was > 100 µM throughout.
In the case of `CCSC(=O)C1(C)OC2CCCCC2C1=O` (stereo not drawn), the TGI in test [2], in test [3], in test [4], in test [5], in [6] and in [7] was > 100 µM each time. Further, the TGI in [8], in [9] and in test [10] was > 100 µM each time.
Consider `[O-][n+]1c2cc(CN3CCOCC3)c(CN3CCOCC3)cc2[n+]([O-])c2c(O)cccc21`, for which the TGI in [2] was 6.05 µM; in test [3], 26.3 µM; in [4], 12.2 µM; in [5], 7.09 µM; in test [6], > 37.9 µM; in test [7], 6.03 µM. In addition, the results for the TGI in test [8], in test [9] and in [10] were 32.5 µM, 2.82 µM and 31.5 µM, respectively.
Regarding `O=C(O)C1CC2CC(=O)C1C2` (stereo not drawn), the TGI in [2], in [3], in test [4], in test [5], in test [6] and in test [7] was > 100 µM each time. Further, the TGI in test [8], in [9] and in [10] was > 100 µM each time.
`COC(=O)c1nc(N)nc(C(=O)OC)c1C(=O)c1ccccc1`: the TGI in [2], in [3], in test [4], in test [5], in test [6] and in test [7] was > 100 µM throughout. Besides, the TGI in [8], in test [9] and in [10] was > 100 µM in each case.
`O=C1NN=CN2C(=O)CCC12` (stereo not drawn): the TGI in test [2], in test [3], in test [4], in [5], in test [6] and in test [7] was > 100 µM throughout. Besides, the TGI in test [8], in test [9] and in [10] was > 100 µM throughout.
As to `COc1cc(/C=C\c2ccc(Cl)cc2)cc(OC)c1OC`, the TGI was > 100 µM in test [2]; > 100 µM in test [3]; 46.4 µM in test [4]; > 100 µM in [5]; 12.8 µM in [6]; 20.3 µM in [7]. Also, the results for the TGI in [8], in test [9] and in [10] were > 67.5 µM, 0.564 µM and 1.25 µM, respectively.
Turning to `O=C1NN=C(c2ccc([N+](=O)[O-])cc2)C1n1nc(-c2ccccc2)c2ccccc2c1=O` (stereo not drawn), the TGI in test [2] is > 100 µM; in test [3], > 100 µM; in test [4] it was > 70 µM; in [5], > 100 µM; in test [6] it was > 100 µM; in test [7], > 100 µM. For the same compound, the TGI in test [8], in test [9] and in test [10] was > 100 µM in each case.
Regarding `COc1cc2c(cc1OCCCCCn1c3ccccc3c3ccccc31)N=C[C@@H]1CCCN1C2=O`, the GI50 was 2.36 µM in [1]; 1.65 µM in [2]; 1.74 µM in test [3]; 1.59 µM in test [5]; 1.73 µM in test [6]; 1.73 µM in [7]. For the same compound, the GI50 in [8] is 1.8 µM; in [9] it was 1.85 µM; in test [10], 1.77 µM. The TGI in test [1] is 7.73 µM; in [2], 3.33 µM; in test [3] it was 3.34 µM; in test [5], 3.19 µM; in [6], 3.15 µM; in test [7], 3.2 µM. Besides, the TGI amounted to 3.5 µM in test [8], 3.37 µM in test [9] and 3.69 µM in test [10].
Turning to `COc1ccc(C=C2C(=O)NC(=O)NC2=O)cc1OCc1ccccc1`, the GI50 was 46.7 mg/L in [1]; 40.5 mg/L in test [2]; 36.9 mg/L in test [3]; 17.8 mg/L in [4]; 31.2 mg/L in test [5]; 49 mg/L in test [6]. Also, the GI50 in [7] is 52.9 mg/L; in test [8], 65.7 mg/L; in test [9], 20.3 mg/L. Further, the figures for the TGI in test [4] and in test [9] were 48.8 mg/L and 47.4 mg/L, respectively.
For `N#CC(C(=O)CCC(=O)Nc1ccc(Cl)c(Cl)c1)c1ccc(Cl)cc1` (stereo not drawn), the TGI in [2], in [3], in test [4], in [5], in test [6] and in test [7] was > 100 µM throughout. Also, the TGI in [8], in [9] and in test [10] was > 100 µM throughout.
